{
  "source": "ChEMBL document CHEMBL4177677",
  "about": "“Relevance of Half-Life in Drug Design” (J Med Chem, 2018)",
  "key": {"[1]": {"assay": "Terminal half life in human at 0.1 mg/kg, iv", "type": "ADME, organism-based", "conditions": "in vivo, read-out: beta t1/2 (converted)"}, "[2]": {"assay": "Drug excretion in human kidney", "conditions": "urine"}, "Homo sapiens [3]": {"organism": "Homo sapiens", "assay": "Unbound concentration in human at 5 to 10 mg, qd", "type": "ADME, organism-based", "conditions": "in vivo"}, "[4]": {"assay": "Inhibition of human calcium channel"}, "[5]": {"assay": "Half life in human", "type": "ADME, organism-based", "conditions": "in vivo"}, "[6]": {"assay": "Terminal half life in human", "type": "ADME, organism-based", "conditions": "in vivo, read-out: beta t1/2"}, "[7]": {"assay": "Half life in human at 10 mg, tid", "conditions": "in vivo"}, "Homo sapiens [8]": {"organism": "Homo sapiens", "assay": "Unbound concentration in human at 10 mg, tid", "conditions": "in vivo"}},
  "data": [
    {"compound": "NS(=O)(=O)N1CCN(C2CN(CC[C@]3(c4ccc(Cl)c(Cl)c4)CCC(=O)N(CC4CC4)C3)C2)CC1", "values": [
      {"measurement": "half-life", "setting": "[1]", "value": 28, "unit": "h"}
    ]},
    {"compound": "NCCCC(O)(P(=O)(O)O)P(=O)(O)O", "note": "[ALENDRONIC ACID]", "values": [
      {"measurement": "dose excreted", "setting": "[2]", "value": "20 to 80", "unit": "%"}
    ]},
    {"compound": "CCOC(=O)C1=C(COCCN)NC(C)=C(C(=O)OC)C1c1ccccc1Cl", "note": "(stereo not given) [AMLODIPINE]", "values": [
      {"measurement": "Drug uptake(free)", "setting": "Homo sapiens [3]", "value": 2, "unit": "nM"},
      {"measurement": "IC50", "setting": "[4]", "value": 2, "unit": "nM"}
    ]},
    {"compound": "COc1cc(F)c(C(C)C)cc1-c1ccc(C(F)(F)F)cc1CN1C(=O)O[C@H](c2cc(C(F)(F)F)cc(C(F)(F)F)c2)[C@@H]1C", "note": "[ANACETRAPIB]", "values": [
      {"measurement": "half-life", "setting": "[5]", "value": 60, "unit": "h"}
    ]},
    {"compound": "CC(C(=O)O)c1ccc2oc(-c3ccc(Cl)cc3)nc2c1", "note": "(stereo not given) [BENOXAPROFEN]", "values": [
      {"measurement": "half-life", "setting": "[6]", "value": "19 to 26", "unit": "h"}
    ]},
    {"compound": "COC(=O)C1=C(C)NC(C)=C(C(=O)OC)C1c1ccccc1[N+](=O)[O-]", "note": "[NIFEDIPINE]", "values": [
      {"measurement": "half-life", "setting": "[7]", "value": 2, "unit": "h"},
      {"measurement": "Drug uptake(free)", "setting": "Homo sapiens [8]", "value": 6, "unit": "nM"},
      {"measurement": "IC50", "setting": "[4]", "value": 4, "unit": "nM"}
    ]},
    {"compound": "C[C@@H]1CCN(C(=O)CC#N)C[C@@H]1N(C)c1ncnc2[nH]ccc12", "note": "[TOFACITINIB]", "values": [
      {"measurement": "half-life", "setting": "[5]", "value": 3, "unit": "h"}
    ]}
  ]
}
